“Also recorded” adds a separate entry of the source.
What was measured:
HIV-1 infected H9 cells = assay: Cell death of HIV-1 infected H9 cells on pre-treatment with mitochondrial inhibitors; conditions: pre-treatment for 3 hours; CCCP 10 μM, antimycin A 2.4 μM, oligomycin 2.4 μM
Experimental: To verify that functional mitochondria are essential for cell-to-cell transmission of the virus, we pre-treated HIV-1 infected H9 cells with mitochondrial inhibitors including carbonyl cyanide m-chlorophenylhydrazone (CCCP, 10 μM), antimycin A (2.4 μM), and oligomycin (2.4 μM) for 3 hours [14].

HIV-1 [1] = assay: Live-cell fluorescence imaging of cell-to-cell transmission of HIV-1, pre-treated H9 cells co-cultured with GFP-MT2 target cells; format: cell-based, Human immunodeficiency virus type 1 (HIV-1); conditions: FIG. 4C-3; for cell-to-cell spread of HIV-1, VS and syncytia formation: H9 cells pre-treated 3 hours (CCCP 10 μM, antimycin A 2.4 μM, oligomycin 2.4 μM), washed, co-cultured with GFP-MT2
Experimental: (§1) HIV-1 infected H9 cells were fluorescently labeled with MitoTracker Red CMXRos to stain mitochondria red, and with Hoechst 33342 to stain DNA blue according to the manufacturer's protocols (Molecular Probes). Uninfected MT2 target cells were labeled green by the expression of green fluorescent protein (GFP-MT2). Cells were co-cultured and imaged on a glass bottom 96-well plate (MatTek, Ashland, Mass.) in RPMI 1640 medium containing 10% heat-inactivated fetal calf serum, 2 mM L-glutamine, 100 U/ml penicillin and 100 μg/ml streptomycin (complete medium). Labeled HIV-1 infected H9 cells were washed 3 times with complete medium to remove any residual free virus and free dye. Washed cells were suspended in complete medium at a density of 5×10^5 cells/ml. 100 μl of this cell suspension, containing 50,000 cells, were plated into each well. 100,000 GFP-MT2 target cells in 100 μl were then added to each well, to give a ratio of 1:2 of infected to uninfected target cells.
Live-cell real-time images and time lapse movies were collected at 37° C., 5% CO2 using a microplate incubator, with precision temperature, humidity and CO2 controls, mounted on the microscope stage of a Leica inverted microscope equipped with an automatic power stage and an AF6000 camera. Phase contrast, blue (Hoechst 33342), green (GFP), and red (MitoTracker) channels were used for imaging. Images were collected at 0.5 min or 5 min intervals for 18-24 hours. Image analysis was performed using LCSAF software.

HIV-1 core protein p24 = assay: HIV-1 p24 assay (ELISA) in co-culture supernatants; format: cell-based, Human immunodeficiency virus type 1 (HIV-1); conditions: HIV-infected H9 cells treated with CCCP, co-cultured with MT2 target cells; supernatant
Experimental: as §1, with “cells. […]” for “cells.”
(§2) For quantitation of syncytial formation and HIV p24 production, data are means±standard deviations of four independent experiments. […]
(§3) To confirm that mitochondria from HIV infected cells serve as viral reservoirs and carry the virus into the uninfected target cells, the present inventors quantitated viral infection and replication in the co-cultures by syncytia formation and viral antigen p24 production. […]

HIV-1 [2] = assay: Syncytia formation assay in co-cultures of HIV-1 infected H9 cells with MT2 target cells; format: cell-based, Human immunodeficiency virus type 1 (HIV-1); conditions: Human immunodeficiency virus 1, H9, 3 h, HIV-infected H9 cells treated with 10 μM CCCP for 3 hours, then co-cultured with MT2 target cells
Experimental: as §1, with “100 μl of this cell suspension, containing 50,000 cells, were plated into each well. 100,000 GFP-MT2 target cells in 100 μl were then added to each well, to give a ratio of 1:2 of infected to uninfected target cells.” left out
Acute HIV infection of the target cells as a result of cell-to-cell transmission of the virus was measured by syncytia formation assay. Focal syncytium formation was scored under an inverted microscope.
as §2, §3

[3] = system: human pancreatic cancer PANC-1 cells; conditions: glucose-deprived conditions; cited from earlier work

Row | Compound | cell death (HIV-1 infected H9 cells) | syncytia formation in fluorescent images (HIV-1 [1]; CCCP-treated HIV-1 infected H9 cells co-cultured with GFP-MT2 target cells) | cell-to-cell spread of HIV-1, VS and syncytia formation (HIV-1 [1]) | reduction of p24 expression (HIV-1 core protein p24) | inhibition at 10 µM (HIV-1 [2]) [%] | cytotoxicity [3]
1 | N#CC(C#N)=NNc1cccc(Cl)c1 [CCCP, carbonyl cyanide m-chlorophenylhydrazone] | no cell death | inhibits syncytia formation; also recorded: blocked syncytia formation | reduced cell-to-cell spread of HIV-1 and decreased VS and syncytia formation | about 95% | ~95 | 
2 | CC[C@H]1/C=C/C=C/C[C@@H](C)[C@H](O)[C@@](C)(O)C(=O)[C@@H](C)[C@H](O)[C@@H](C)C(=O)[C@@H](C)[C@H](O)[C@@H](C)/C=C/C(=O)O[C@@H]2[C@H](C)[C@H](CC1)O[C@]1(CC[C@H](C)[C@H](C[C@@H](C)O)O1)[C@H]2C [oligomycin] | no cell death |  | reduced cell-to-cell spread of HIV-1 and decreased VS and syncytia formation |  |  | 
3 | antimycin A | no cell death |  | reduced cell-to-cell spread of HIV-1 and decreased VS and syncytia formation |  |  | 
4 | efrapeptin F |  |  |  |  |  | preferential cytotoxicity

Reference: patent US8911935B2, “Mitochondria and human immunodefiency virus type 1” (New York University, priority 2011, dated 2014)
